Measurements: US12358915B2, “METTL3 inhibitory compounds” (STORM THERAPEUTICS LTD., priority 2019, dated 2025)
Structures can show the parent of a compound that is named as a salt. Where two headings read alike, the source gives them in different places.

How the values were obtained:
METTL3/14 = molecular target: T1, METTL3/14 (Homo sapiens, UniProt Q86U44); assay: METTL3/14 methyltransferase assay (METTL3_14 RFMS, RapidFire mass spectrometry); assay type: biochemical; details: read-out: METTL3_14 RFMS IC50;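 note: recombinant His-tagged METTL3 with FLAG-tagged METTL14 from baculovirus, SAH product quantified by mass spectrometry against isotope-labelled internal standards, 60 min at room temperature, scaled between no-RNA and DMSO-only wells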
T1 construct: The enzyme used was full-length his-tagged METTL3; His; made in house
T1 sequence (Q86U44 whole entry): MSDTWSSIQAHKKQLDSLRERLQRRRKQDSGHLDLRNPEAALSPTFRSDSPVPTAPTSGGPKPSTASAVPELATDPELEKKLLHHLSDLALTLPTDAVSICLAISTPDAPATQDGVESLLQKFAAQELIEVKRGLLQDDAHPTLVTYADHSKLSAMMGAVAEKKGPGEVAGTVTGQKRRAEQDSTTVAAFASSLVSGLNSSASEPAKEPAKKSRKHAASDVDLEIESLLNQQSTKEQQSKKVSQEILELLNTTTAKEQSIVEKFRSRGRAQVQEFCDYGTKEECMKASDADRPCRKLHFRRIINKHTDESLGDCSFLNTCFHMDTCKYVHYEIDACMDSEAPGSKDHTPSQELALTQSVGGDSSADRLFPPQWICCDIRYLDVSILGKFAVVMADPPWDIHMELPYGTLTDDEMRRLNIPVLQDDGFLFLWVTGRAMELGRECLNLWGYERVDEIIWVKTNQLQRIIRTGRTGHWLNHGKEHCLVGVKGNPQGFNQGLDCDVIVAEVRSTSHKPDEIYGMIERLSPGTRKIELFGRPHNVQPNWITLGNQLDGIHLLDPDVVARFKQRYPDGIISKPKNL
T1 sequence (Q9HCE5 whole entry partner): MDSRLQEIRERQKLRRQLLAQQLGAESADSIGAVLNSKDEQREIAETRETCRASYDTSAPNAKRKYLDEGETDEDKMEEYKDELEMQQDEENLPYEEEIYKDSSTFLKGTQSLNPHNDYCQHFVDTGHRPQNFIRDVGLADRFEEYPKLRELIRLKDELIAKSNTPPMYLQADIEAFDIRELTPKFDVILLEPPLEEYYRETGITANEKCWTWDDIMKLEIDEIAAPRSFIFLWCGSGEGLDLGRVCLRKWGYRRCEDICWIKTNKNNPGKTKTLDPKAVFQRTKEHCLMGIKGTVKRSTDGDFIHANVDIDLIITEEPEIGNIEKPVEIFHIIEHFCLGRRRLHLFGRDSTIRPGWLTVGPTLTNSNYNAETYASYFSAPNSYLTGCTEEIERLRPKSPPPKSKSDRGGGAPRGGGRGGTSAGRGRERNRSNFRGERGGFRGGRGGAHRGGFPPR

MOLM-13 cells = assay: MOLM13 CTG - analysis of cell proliferation (Cell Titre Glo); assay type: cell-based; details: Homo sapiens, geometric mean, read-out: CTG MOLM13 cells IC50 GEOMEAN
Procedure: MOLM-13 or MOLM-14 cells were plated, in suspension, in 24 well tissue culture plates at final concentration of 200,000/ml, with or without 50 ng/ml IFNγ. […] Cells were incubated for 4 days at 37° C. at which point 600 μl of cell suspension was removed for Mass spectrometry analysis of m6A. 600 μl of fresh media containing the appropriate concentration of METTL3 inhibitor/IFNγ was added to remaining cell suspensions. Cells where then cultured for a further 7 days, cell suspension was sampled for analysis of proliferation and Cell surface markers periodically.
At regular time points (4, 5, 6 &7) days cells were mixed to maintain a homogenous cell suspension. 25 μl of this cell suspension was removed and added to a white 384 well plate, 25 μl of Cell Titre Glo reagent (Promega) was added, and incubated for 10 mins at room temperature before measurement of luminescence intensity, as per the manufacturers instructions.

[1] = 5 nM METTL3/14, 0.2 μM RNA substrate, 0.5 μM SAM, lower limit of the assay IC50=5 nM, Compounds 266-351
[2] = 5 nM METTL3/14, 0.2 μM RNA substrate, 0.5 μM SAM, lower limit of the assay IC50=5 nM, Compounds 63-265

| Structure (SMILES) | IC50 (METTL3/14; [1]) | IC50 (MOLM-13 cells) | IC50 (METTL3/14; [2]) | also measured |
| --- | --- | --- | --- | --- |
| O=C(NCc1cn2cc(CNCC3CCCCC3)ccc2n1)c1cc(=O)n2ccccc2n1 [Compound 72, N-[(6-{[(cyclohexyl-methyl)amino]methyl}imidazo [1,2-a]pyridin-2-yl)methyl]-4-oxo-4H-pyrido [1,2-a]pyrimidine-2-carboxamide] |  | 8.7 µM |  |  |
| CN(Cc1ccccc1)Cc1ccc2nc(CNC(=O)c3cc(=O)n4ccccc4n3)cn2c1 [Compound 74, N-[(6-{[benzyl (methyl)amino]methyl}imidazo [1,2-a]pyridin-2-yl)methyl]-4-oxo-4H-pyrido [1,2-a]pyrimidine-2-carboxamide] |  | ≥ 30 µM | 0.122 µM |  |
| CC(C)(NCc1ccc2nc(CNC(=O)c3cc(=O)n4ccccc4n3)cn2c1)c1ccccc1 [Compound 78, 4-oxo-N-[(6-{[(2-phenylpropan-2-yl)amino]methyl}imidazo[1,2-a]pyridin-2-yl)methyl]-4H-pyrido[1,2-a]pyrimidine-2-carboxamide] |  | 6.04 µM | 0.163 µM |  |
| O=C(NCc1cn2cc(CNCC3CC(F)(F)C3)ccc2n1)c1cc(=O)n2ccccc2n1 [Compound 83, N-{[6-({[(3,3-difluoro-cyclobutyl)methyl]amino}methyl)imidazo[1,2-a]pyridin-2-yl]methyl}-4-oxo-4H-pyrido [1,2-a]pyrimidine-2-carboxamide] |  | 4.12 µM | 0.0106 µM |  |
| O=C(NCc1cn2cc(CNCC34CC(C(F)(F)F)(C3)C4)ccc2n1)c1cc(=O)n2ccccc2n1 [Compound 87, 4-oxo-N-({6-[({[3-(trifluoromethyl)bicyclo[1.1.1]pentan-1-yl]methyl}amino)methyl]imidazo[1,2-a]pyridin-2-yl}methyl)-4H-pyrido [1,2-a]pyrimidine-2-carboxamide] |  | ≥ 30 µM |  | IC50 (METTL3/14): 0.0485 µM |
| O=C(NCc1cn2cc(CNC3(c4ccccc4)COC3)ccc2n1)c1cc(=O)n2ccccc2n1 [Compound 89, 4-oxo-N-[(6-{[(3-phenyloxetan-3-yl)amino]methyl}imidazo[1,2-a]pyridin-2-yl)methyl]-4H-pyrido[1,2-a]pyrimidine-2-carboxamide] |  | 13.1 µM | 1.86 µM |  |
| O=C(NCc1cn2cc(CNCCC3CC3)ccc2n1)c1cc(=O)n2ccccc2n1 [Compound 103, N-[(6-{[(2-cyclopropylethyl)amino]methyl}imidazo[1,2-a]pyridin-2-yl)methyl]-4-oxo-4H-pyrido[1,2-a]pyrimidine-2-carboxamide] |  | 6.8 µM | 0.0137 µM |  |
| O=C(NCc1cn2cc(CN3CCCCC3)ccc2n1)c1cc(=O)n2ccccc2n1 [Compound 104, 4-oxo-N-({6-[(piperidin-1-yl)methyl]imidazo[1,2-a]pyridin-2-yl}methyl)-4H-pyrido[1,2-a] pyrimidine-2-carboxamide] |  | 8.73 µM | 0.0691 µM |  |
| O=C(NCc1cn2cc(CN[C@@H]3C[C@H]3C(F)(F)F)ccc2n1)c1cc(=O)n2ccccc2n1 [Compound 112, 4-oxo-N-{[6-({[(1R,2R)-2-(trifluoromethyl)cyclopropyl]amino}methyl)imidazo[1,2-a]pyridin-2-yl]methyl}-4H-pyrido[1,2-a] pyrimidine-2-carboxamide] |  | 12.7 µM | 0.755 µM |  |
| C[C@@H]1COC[C@H](c2ccc3nc(CNC(=O)c4cc(=O)n5ccccc5n4)cn3c2)N1 [Example 233, N-({6-[(3S,5R)-5-methylmorpholin-3-yl]imidazo[1,2-a]pyridin-2-yl}methyl)-4-oxo-4H-pyrido[1,2-a]pyrimidine-2-carboxamide] |  |  | 1.39 µM |  |
| COc1cccc2c1OCC(c1ccc3nc(CNC(=O)c4cc(=O)n5ccccc5n4)cn3c1)NC2 (stereo not drawn) [Example 234, N-{[6-(9-methoxy-2,3,4,5-tetrahydro-1,4-benzoxazepin-3-yl)imidazo[1,2-a]pyridin-2-yl]methyl}-4-oxo-4H-pyrido[1,2-a]pyrimidine-2-carboxamide] |  |  | 3.44 µM |  |
| O=C(NCC1CCCCC1)c1ccc2nc(Cn3cc(-c4cccc5[nH]ncc45)nn3)cn2c1 [Example 249, N-(cyclohexylmethyl)-2-{[4-(1H-indazol-4-yl)-1H-1,2,3-triazol-1-yl]methyl}imidazo[1,2-a]pyridine-6-carboxamide] |  |  | 0.229 µM |  |
| CC(C)(C)CNCc1ccc2nc(Cn3cc(-c4cncc5[nH]ncc45)nn3)cn2c1 [Example 256, (2,2-dimethylpropyl)({2-[(4-{1H-pyrazolo[3,4-c]pyridin-4-yl}-1H-1,2,3-triazol-1-yl)methyl]imidazo[1,2-a]pyridin-6-yl}methyl)amine] |  |  | 0.246 µM |  |
| OCc1ccc2nc(Cn3cc(-c4cncc5[nH]ncc45)nn3)cn2c1 [Example 257, {2-[(4-{1H-pyrazolo[3,4-c]pyridin-4-yl}-1H-1,2,3-triazol-1-yl)methyl]imidazo[1,2-a]pyridin-6-yl}methanol] |  |  | 4.44 µM |  |
| O=C(NCc1cn2cc([C@H]3COC[C@@H](C4CCCCC4)N3)ccc2n1)c1cc(=O)c2ccccc2o1 [Example 264, N-({6-[(3S,5R)-5-cyclohexylmorpholin-3-yl]imidazo[1,2-a]pyridin-2-yl}methyl)-4-oxo-4H-chromene-2-carboxamide] |  |  | 0.195 µM |  |
| Cc1ccc2nc(Cn3cc(-c4cccc5[nH]nc(N)c45)nn3)cn2c1 [Example 272, 4-[1-[(6-methylimidazo[1,2-a]pyridin-2-yl)methyl]triazol-4-yl]-1H-indazol-3-amine] | 9.02 µM |  |  |  |
| O=C(NCc1cn2cc(C(Cc3ccccc3)N(CC3CCC3)CC3CCC3)ccc2n1)c1cc(=O)n2ccccc2n1 (stereo not drawn) [Example 314] |  |  |  | IC50 (METTL3/14): 7.11 µM |

More lines, main results first:

| IC50 (METTL3/14; [1]) | IC50 (MOLM-13 cells) | IC50 (METTL3/14; [2]) | Structure (SMILES) | also measured |
| --- | --- | --- | --- | --- |
| 0.122 µM | 17.9 µM |  | O=C1CC(c2ccc3nc(CNC(=O)c4cc(=O)n5ccccc5n4)cn3c2)NC(C2CCCCC2)C1 (mixture of isomers) [Example 334, N-[[6-(6-cyclohexyl-4-oxo-2-piperidyl)imidazo[1,2-a]pyridin-2-yl]methyl]-4-oxo-pyrido[1,2-a]pyrimidine-2-carboxamide] |  |
| 0.233 µM |  |  | O=C(NCCO)c1cc(-c2cn(Cc3cn4cc(CNCC5CCC5)ccc4n3)nn2)c2cn[nH]c2c1 [Example 301] |  |
| 0.0061 µM |  |  | CC(C)(C)CNCc1ccc2nc(Cn3cc(-c4cc(Cl)cc5[nH]ncc45)nn3)cn2c1 [Example 304, N-[[2-[[4-(6-chloro-1H-indazol-4-yl)triazol-1-yl]methyl]imidazo[1,2-a]pyridin-6-yl]methyl]-2,2-dimethyl-propan-1-amine] |  |
| 0.12 µM |  |  | NC1(CNCc2ccc3nc(Cn4cc(-c5ccc(F)c6[nH]ncc56)nn4)cn3c2)CCCC1 [Example 309, 1-[[[2-[[4-(7-fluoro-1H-indazol-4-yl)triazol-1-yl]methyl]imidazo[1,2-a]pyridin-6-yl]methylamino]methyl]cyclopentanamine] |  |
| 0.186 µM |  |  | CC1(C)CCN(Cc2ccc3nc(CNC(=O)c4cc(=O)c5c(F)cccc5o4)cn3c2)CC1 [Example 310, N-[[6-[(4,4-dimethyl-1-piperidyl)methyl]imidazo[1,2-a]pyridin-2-yl]methyl]-5-fluoro-4-oxo-chromene-2-carboxamide] |  |
| 0.0521 µM |  |  | CC1(C)CCN(Cc2ccc3nc(CNC(=O)c4cc(OCCOCCN)cc5[nH]ncc45)cn3c2)CC1 [Example 312, 6-[2-(2-aminoethoxy)ethoxy]-N-[[6-[(4,4-dimethyl-1-piperidyl)methyl]imidazo[1,2-a]pyridin-2-yl]methyl]-1H-indazole-4-carboxamide trihydrochloride] |  |
| 0.462 µM |  |  | OCc1ccc2nc(Cn3cc(-c4cc(F)cc5[nH]ncc45)nn3)cn2c1 [Example 317, [2-[[4-(6-fluoro-1H-indazol-4-yl)triazol-1-yl]methyl]imidazo[1,2-a]pyridin-6-yl]methanol] |  |
| 0.0132 µM |  |  | CC(C)(C)CNCc1ccc2nc(Cn3cc(-c4cc(C5CC5)cc5[nH]ncc45)nn3)cn2c1 [Example 321, N-[[2-[[4-(6-cyclopropyl-1H-indazol-4-yl)triazol-1-yl]methyl]imidazo[1,2-a]pyridin-6-yl]methyl]-2,2-dimethyl-propan-1-amine] |  |
| 1.64 µM |  |  | Cc1ccc2nc(Cn3cnc(-c4cccc5[nH]ncc45)c3)cn2c1 [Example 329, 2-[[4-(1H-indazol-4-yl)imidazol-1-yl]methyl]-6-methyl-imidazo[1,2-a]pyridine formate] |  |
| 3.44 µM |  |  | CC1CNC(c2ccc3nc(CNC(=O)c4cc(=O)n5ccccc5n4)cn3c2)CO1 (stereo not drawn) [Example 331] |  |
| 1.7 µM |  |  | COc1cc(Br)cc2c1OCC(c1ccc3nc(CNC(=O)c4cc(=O)n5ccccc5n4)cn3c1)NC2 (stereo not drawn) [Example 332] |  |
| 1.23 µM |  |  | O=C(NCc1cn2cc(C3CNCCN3)ccc2n1)c1cc(=O)n2ccccc2n1 (stereo not drawn) [Example 333, 4-oxo-N-[(6-piperazin-2-ylimidazo[1,2-a]pyridin-2-yl)methyl]pyrido[1,2-a]pyrimidine-2-carboxamide] |  |
| 7.29 µM |  |  | Cc1ccc2nc(C(C)(O)c3cnc(-c4cccc5[nH]ncc45)s3)cn2c1 (stereo not drawn) [Example 335, 1-[2-(1H-indazol-4-yl)thiazol-5-yl]-1-(6-methylimidazo[1,2-a]pyridin-2-yl)ethanol] |  |
| 4.16 µM |  |  | c1cc(-n2cc(Cc3cn4ccccc4n3)nn2)c2cn[nH]c2c1 [Example 336, 4-(4-(imidazo[1,2-a]pyridin-2-ylmethyl)-1H-1,2,3-triazol-1-yl)-1H-indazole] |  |
| 6.81 µM |  |  | CC(=O)N(Cc1ccc2nc(CNC(=O)c3cc(=O)n4ccccc4n3)cn2c1)CC1CCC1 [Example 340, N-[(6-{[N-(cyclobutylmethyl)acetamido]methyl}imidazo[1,2-a]pyridin-2-yl)methyl]-4-oxo-4H-pyrido[1,2-a]pyrimidine-2-carboxamide] |  |
| 0.0644 µM |  |  | c1cc(-c2ncn(Cc3cn4cc(CNCC5CCC5)ccc4n3)n2)c2cn[nH]c2c1 [Example 341, N-(cyclobutylmethyl)-1-[2-[[3-(1H-indazol-4-yl)-1,2,4-triazol-1-yl]methyl]imidazo[1,2-a]pyridin-6-yl]methanamine] |  |
